Assay results reported in ChEMBL document CHEMBL1201862, “PubChem BioAssay data set” (2004).
Calls of active or inactive are those of the source.

How the values were obtained:
Cannabinoid receptor 2 [1] = target: T1, Cannabinoid receptor 2 (Homo sapiens, UniProt P34972); experiment: SAR analysis of antagonists of the Cannabinoid Receptor 2 using an Image-Based Assay - Set 2. [Related pubchem assays (depositor defined):AID1961, AID1965]; type: functional
Cysteine protease ATG4B = target: T2, Cysteine protease ATG4B (Homo sapiens, UniProt Q9Y4P1); type: functional;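 also: Fluorescence-based dose-response confirmation assay measuring inhibition of ATG4B activity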
T2 sequence (Q9Y4P1 whole entry): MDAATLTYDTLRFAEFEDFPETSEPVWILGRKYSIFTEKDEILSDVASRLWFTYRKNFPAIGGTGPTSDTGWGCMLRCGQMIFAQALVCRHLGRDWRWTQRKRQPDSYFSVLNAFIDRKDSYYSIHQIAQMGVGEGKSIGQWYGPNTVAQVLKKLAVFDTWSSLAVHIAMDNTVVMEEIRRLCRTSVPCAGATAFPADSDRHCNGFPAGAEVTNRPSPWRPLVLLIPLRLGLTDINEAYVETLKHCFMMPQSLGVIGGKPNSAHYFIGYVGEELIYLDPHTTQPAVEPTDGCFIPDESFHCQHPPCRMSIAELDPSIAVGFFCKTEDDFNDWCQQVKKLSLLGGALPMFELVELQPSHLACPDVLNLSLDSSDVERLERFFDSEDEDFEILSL

Cannabinoid receptor 2 [2] = target: T1, Cannabinoid receptor 2; experiment: SAR analysis of agonists of the Cannabinoid Receptor 2 using an Image-Based Assay - Set 2. [Related pubchem assays (depositor defined):AID1961, AID1965]; type: functional
[3] = target: T3, G-protein coupled receptor 55 (Homo sapiens, UniProt Q9Y2T6); experiment: SAR analysis of selective Agonists of GPR55 using an Image-Based Assay. [Related pubchem assays (depositor defined):AID1961, AID1965]; type: functional
[4] = target: T3, G-protein coupled receptor 55; experiment: selective activators of receptor GPR55 – imaging, U2OS cells, beta-arrestin-GFP redistribution, primary screen (AID 1961); type: functional
[5] = target: T4, Heat shock factor protein 1 (Mus musculus, UniProt P38532); experiment: decrease of HSF1-responsive luciferase luminescence – cell-based, NIH3T3, dose retest, confirmation (AID 2382); type: functional;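 also: NIH3T3 fibroblasts with HSF1-driven luciferase reporter stressed by proteasome inhibitor MG132; luminescence from HSF1-driven luciferase expression after 8 hours of MG132 stress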
T4 sequence (P38532 whole entry): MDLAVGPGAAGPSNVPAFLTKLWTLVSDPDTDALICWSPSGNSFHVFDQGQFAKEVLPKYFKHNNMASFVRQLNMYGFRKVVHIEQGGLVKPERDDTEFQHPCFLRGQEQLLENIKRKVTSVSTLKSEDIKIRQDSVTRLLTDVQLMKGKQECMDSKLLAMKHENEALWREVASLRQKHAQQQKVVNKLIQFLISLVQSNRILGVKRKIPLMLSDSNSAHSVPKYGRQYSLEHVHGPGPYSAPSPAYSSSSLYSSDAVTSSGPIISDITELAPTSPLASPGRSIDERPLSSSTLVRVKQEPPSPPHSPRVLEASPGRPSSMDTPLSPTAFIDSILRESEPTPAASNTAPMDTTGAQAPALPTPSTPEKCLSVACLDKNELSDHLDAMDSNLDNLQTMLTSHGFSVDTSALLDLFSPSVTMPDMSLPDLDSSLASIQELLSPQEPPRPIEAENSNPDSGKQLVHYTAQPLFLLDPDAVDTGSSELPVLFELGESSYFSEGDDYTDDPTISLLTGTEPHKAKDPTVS

Cannabinoid receptor 1 = Cannabinoid receptor 1 (Homo sapiens, UniProt P21554); experiment: SAR analysis of antagonists of the Cannabinoid Receptor 1 using an Image-Based Assay. [Related pubchem assays (depositor defined):AID1961, AID1965]; type: functional
Phospholipase A2 = Phospholipase A2 (Homo sapiens, UniProt P04054); type: functional;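 also: confirmatory dose-response counterscreen on phospholipase A2, testing hits that came from an ultra-high-throughput screen for ATG4B inhibitors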
Exodeoxyribonuclease V = Exodeoxyribonuclease V (Escherichia coli (strain K12), UniProt P04993+P07648+P08394); experiment: RecBCD inhibition via phage-restricted bacterial growth – absorbance, V66 E. coli, mutant T4 phage, counter-screen for AddAB inhibitor project, dose response (AID 492957); type: functional, cell-based, Escherichia coli str. K-12 substr. MG1655
H9c2 = experiment: cells; type: functional, cell-based; conditions: Rattus norvegicus, H9c2, Myocardium;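 also: confirmatory concentration-response retest of ultra-high-throughput screening hits for modulation of myocardial damage; cell death induced by hydrogen peroxide oxidative stress; compound pretreatment for 60 min then peroxide exposure for 2 h; potency is for protecting the cells against peroxide damage rather than for killing them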
[6] = Counterscreen for AddAB inhibitors: absorbance-based bacterial cell-based high throughput dose response assay for inhibitors of bacterial viability. [Related pubchem assays (depositor defined):AID435030, AID449728, AID449731, AID488942, AID488955, AID488956]; type: functional

T1 sequence (P34972 whole entry): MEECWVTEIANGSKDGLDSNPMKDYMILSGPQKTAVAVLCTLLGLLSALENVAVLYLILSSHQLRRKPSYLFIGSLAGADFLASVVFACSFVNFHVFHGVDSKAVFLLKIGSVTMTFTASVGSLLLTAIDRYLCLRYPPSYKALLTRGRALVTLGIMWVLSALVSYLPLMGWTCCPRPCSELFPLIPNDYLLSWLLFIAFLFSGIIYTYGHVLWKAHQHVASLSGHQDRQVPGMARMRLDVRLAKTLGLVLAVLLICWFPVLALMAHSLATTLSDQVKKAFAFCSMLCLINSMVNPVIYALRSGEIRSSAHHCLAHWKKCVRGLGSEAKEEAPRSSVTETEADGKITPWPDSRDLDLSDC
T3 sequence (Q9Y2T6 whole entry): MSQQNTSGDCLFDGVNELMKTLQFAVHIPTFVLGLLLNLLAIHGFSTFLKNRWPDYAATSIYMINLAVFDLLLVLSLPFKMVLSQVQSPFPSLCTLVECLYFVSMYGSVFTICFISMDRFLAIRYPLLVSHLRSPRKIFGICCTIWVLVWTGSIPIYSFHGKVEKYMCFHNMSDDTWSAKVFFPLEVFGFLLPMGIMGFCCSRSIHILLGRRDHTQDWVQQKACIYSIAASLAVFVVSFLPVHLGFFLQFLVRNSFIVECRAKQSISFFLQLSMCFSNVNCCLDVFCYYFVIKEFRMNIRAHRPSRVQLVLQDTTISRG
Sequence of Cannabinoid receptor 1 (P21554 whole entry): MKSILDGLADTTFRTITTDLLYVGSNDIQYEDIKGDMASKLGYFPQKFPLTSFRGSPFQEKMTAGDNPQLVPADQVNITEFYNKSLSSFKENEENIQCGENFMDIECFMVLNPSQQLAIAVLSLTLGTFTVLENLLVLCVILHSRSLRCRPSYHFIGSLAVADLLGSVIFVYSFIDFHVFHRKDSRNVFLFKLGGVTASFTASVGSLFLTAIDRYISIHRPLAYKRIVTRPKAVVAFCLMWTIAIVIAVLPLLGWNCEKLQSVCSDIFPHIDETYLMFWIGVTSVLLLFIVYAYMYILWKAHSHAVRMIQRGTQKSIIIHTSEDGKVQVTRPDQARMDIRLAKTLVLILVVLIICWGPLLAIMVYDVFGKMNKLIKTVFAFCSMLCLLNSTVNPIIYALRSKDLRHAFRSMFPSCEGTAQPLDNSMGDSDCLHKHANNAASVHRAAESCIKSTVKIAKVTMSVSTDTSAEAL
Sequence of Exodeoxyribonuclease V (P04993 whole entry): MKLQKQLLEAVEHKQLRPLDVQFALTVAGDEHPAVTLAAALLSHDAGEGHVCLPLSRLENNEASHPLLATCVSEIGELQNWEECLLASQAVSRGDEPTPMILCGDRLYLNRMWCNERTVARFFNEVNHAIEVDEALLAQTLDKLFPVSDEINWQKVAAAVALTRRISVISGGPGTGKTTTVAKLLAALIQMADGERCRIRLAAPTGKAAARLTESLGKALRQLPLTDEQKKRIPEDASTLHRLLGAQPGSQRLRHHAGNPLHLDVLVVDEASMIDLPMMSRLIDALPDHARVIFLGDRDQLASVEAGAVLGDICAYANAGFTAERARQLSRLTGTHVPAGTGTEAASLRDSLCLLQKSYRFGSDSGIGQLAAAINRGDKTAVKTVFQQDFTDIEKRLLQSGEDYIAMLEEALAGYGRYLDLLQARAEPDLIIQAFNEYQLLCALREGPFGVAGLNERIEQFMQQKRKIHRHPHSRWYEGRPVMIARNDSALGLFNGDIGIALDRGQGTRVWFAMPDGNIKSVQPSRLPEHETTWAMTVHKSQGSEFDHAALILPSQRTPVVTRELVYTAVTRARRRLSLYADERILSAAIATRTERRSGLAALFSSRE
Sequence of Exodeoxyribonuclease V (P07648 whole entry): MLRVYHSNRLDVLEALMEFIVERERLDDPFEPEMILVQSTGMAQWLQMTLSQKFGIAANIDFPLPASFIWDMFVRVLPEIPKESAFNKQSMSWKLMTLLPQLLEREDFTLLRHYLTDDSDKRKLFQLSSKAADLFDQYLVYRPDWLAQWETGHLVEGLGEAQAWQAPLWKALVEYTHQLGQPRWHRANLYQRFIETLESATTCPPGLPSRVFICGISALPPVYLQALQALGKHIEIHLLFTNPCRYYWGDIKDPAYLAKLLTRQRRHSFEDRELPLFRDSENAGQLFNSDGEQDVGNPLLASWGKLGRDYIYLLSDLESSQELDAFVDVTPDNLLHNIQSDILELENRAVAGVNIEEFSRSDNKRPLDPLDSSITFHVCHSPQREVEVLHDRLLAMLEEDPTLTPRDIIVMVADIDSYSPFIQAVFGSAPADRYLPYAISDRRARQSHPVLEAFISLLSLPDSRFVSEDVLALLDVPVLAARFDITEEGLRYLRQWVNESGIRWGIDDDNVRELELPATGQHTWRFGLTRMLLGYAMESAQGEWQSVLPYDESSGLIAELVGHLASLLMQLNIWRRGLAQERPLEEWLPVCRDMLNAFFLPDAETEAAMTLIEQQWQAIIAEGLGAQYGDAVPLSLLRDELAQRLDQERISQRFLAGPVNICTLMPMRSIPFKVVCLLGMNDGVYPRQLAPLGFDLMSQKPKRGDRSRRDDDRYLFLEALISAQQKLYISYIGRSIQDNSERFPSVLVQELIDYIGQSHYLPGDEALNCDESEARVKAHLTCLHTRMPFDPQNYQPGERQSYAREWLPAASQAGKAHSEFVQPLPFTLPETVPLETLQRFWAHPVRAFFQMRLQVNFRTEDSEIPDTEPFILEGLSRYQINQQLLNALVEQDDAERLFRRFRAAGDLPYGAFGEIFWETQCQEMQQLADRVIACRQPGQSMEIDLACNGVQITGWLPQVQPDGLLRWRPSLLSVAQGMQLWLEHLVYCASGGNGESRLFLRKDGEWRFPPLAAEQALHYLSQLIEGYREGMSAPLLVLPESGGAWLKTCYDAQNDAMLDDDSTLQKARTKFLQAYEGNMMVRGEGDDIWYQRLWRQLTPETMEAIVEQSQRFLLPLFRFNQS
Sequence of Exodeoxyribonuclease V (P08394 whole entry): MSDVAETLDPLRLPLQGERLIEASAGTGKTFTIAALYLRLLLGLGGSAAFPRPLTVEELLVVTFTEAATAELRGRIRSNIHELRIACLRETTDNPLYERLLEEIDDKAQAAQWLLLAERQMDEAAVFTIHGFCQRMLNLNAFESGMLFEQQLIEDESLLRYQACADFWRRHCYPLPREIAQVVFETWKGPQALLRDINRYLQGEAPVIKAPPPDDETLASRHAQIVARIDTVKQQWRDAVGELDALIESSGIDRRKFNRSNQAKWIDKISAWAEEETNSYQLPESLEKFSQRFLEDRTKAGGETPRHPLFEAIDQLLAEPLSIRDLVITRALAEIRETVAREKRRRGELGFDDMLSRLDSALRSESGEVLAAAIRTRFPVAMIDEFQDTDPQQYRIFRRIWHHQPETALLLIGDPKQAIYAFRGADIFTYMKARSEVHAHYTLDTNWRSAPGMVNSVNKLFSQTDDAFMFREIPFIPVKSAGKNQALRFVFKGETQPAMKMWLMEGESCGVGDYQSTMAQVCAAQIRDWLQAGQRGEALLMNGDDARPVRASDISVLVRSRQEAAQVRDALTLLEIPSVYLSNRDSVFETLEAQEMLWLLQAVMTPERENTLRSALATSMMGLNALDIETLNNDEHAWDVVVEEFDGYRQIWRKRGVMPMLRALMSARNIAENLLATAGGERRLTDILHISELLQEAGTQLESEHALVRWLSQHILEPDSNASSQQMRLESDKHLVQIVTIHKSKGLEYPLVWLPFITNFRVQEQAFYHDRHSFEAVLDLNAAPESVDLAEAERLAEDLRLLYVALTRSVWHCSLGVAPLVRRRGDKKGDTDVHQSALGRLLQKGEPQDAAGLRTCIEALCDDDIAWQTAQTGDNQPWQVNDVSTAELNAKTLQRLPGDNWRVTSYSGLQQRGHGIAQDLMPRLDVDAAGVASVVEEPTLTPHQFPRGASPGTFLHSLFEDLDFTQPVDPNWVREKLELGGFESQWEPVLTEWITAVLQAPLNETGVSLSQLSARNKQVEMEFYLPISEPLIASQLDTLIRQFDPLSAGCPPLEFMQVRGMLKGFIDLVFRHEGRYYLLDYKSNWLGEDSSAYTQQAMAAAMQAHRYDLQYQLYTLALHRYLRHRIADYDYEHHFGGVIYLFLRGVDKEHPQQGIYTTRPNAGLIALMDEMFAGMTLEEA
Sequence of Phospholipase A2 (P04054 whole entry): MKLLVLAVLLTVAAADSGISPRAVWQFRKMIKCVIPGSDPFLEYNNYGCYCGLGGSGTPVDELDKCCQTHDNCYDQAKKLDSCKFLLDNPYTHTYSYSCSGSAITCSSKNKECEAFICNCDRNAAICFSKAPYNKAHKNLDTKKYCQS

COc1cc2c(cc1NC(=O)C(C)Sc1ccc(NC(C)=O)cc1)oc1ccccc12 (stereo unspecified)
IC50 (Cannabinoid receptor 2 [1]): > 32 µM (inactive) | IC50 (Cysteine protease ATG4B): 14.7 µM (active) | EC50 (Cannabinoid receptor 2 [2]): > 32 µM (inactive) | EC50 [3]: 0.865 µM (active) | EC50 [4]: 0.806 µM (active) | EC50 [5]: > 195 µM (not active) | IC50 (Cannabinoid receptor 1): > 32 µM (inactive) | IC50 (Phospholipase A2): 10 µM (active)

O=C1c2ccccc2NC(c2ccc(-c3cccc([N+](=O)[O-])c3)o2)N1O (stereo unspecified)
IC50 (Exodeoxyribonuclease V): > 119 µM (inactive) | IC50 (H9c2): 11.9 µM (active) | IC50 [6]: > 119 µM (inactive)
